Results reported in patent publication US20090136472A1, “Use of thiazole derivatives and analogues in disorders caused by free fatty acids” (priority 2005, published 2009).

How the values were obtained:
MDA-MB-231 cells = assay: Test A cell proliferation assay (FFA/linolenic acid-stimulated, cell cycle analysis by flow cytometry); type: cell-based, human; details: 24 hours; for inhibition at 10 µM: Homo sapiens, at a concentration of 10 μM, cells in S-phase, read-out: percentage antagonist activity (inhibition of FFA induced cell proliferation); for inhibition at 10 µM / antagonism of free fatty acid stimulated cell proliferation: linolenic acid-stimulated MDA-MB-231 cells; for antagonism of free fatty acid stimulated cell proliferation: S-phase by propidium iodine staining
Experimental: Cytomics™ FC500 Flow Cytometer with CXP software (Beckman Coulter) MDA-MB-231 cells MDA-MB-231 cells were cultured in the propagation media D-MEM+1000 mg/L Glucose+GlutaMAX™ 1+Pyruvate supplemented with 10% V/V Foetal Bovine Serum and PEST (100 U/ml penicillin, 100 μg/mL streptomycin). Cells were seeded in 6 well plates to a density of 300000 cells/well in propagation media. After 24 hours, media was replaced with serum free D-MEM media.
Linolenic acid was diluted in DMSO to a concentration of 100 mM and added to the culture media to a final concentration of 100 μM.
Compounds were as dissolved in DMSO to a concentrations of 10 mM (Compounds of Examples 95 and 6 (Compound X and Compound Y, respectively)) and 40 mM (Compound of Example 4 (Compound Z)) and added to the culture media to a final concentration of 10 μM (X and Y) and 40 μM (Z) respectively.
After 24 hours in serum free media DMEM, linolenic acid (to a final concentration of […]) and compounds to be screened for activity were added to a final concentration of 10 μM (Compounds X and Y) and 40 μM (Compound Z) respectively. Final DMSO concentration was kept at 0.2% in all wells. After 24 hours of stimulation, cells were harvested and propidium iodine stained using a CyStain PI absolute T Kit according to manufacturer's recommendations. Cells were subsequently analyzed using a Cytomics™ FC500 Flow Cytometer with CXP software (Beckman Coulter) for cell cycle distribution. Cells were incubated with or without linolenic acid (LA) and the Compounds X, Y and Z for 24 hours at indicated concentrations. Cells in S-phase from untreated sample were set to 100% in each experiment.

Ob/Ob mice = assay: Test B insulin measurement study in diabetic Ob/Ob mice; type: in vivo; details: 1 mg/kg intraperitoneally once daily for 2 weeks
Experimental: Ultra sensitive rat insulin ELISA kit (Crystal Chen inc) according to manufacturer's recommendations.
Serum insulin measurements on 4 hour fasted 8-9 week old Ob/Ob mice (Taconic) were performed. Mice were distributed to a vehicle control group (VC) or a Compound Z treatment group, so that mean s-insulin was equal between the groups. 1 mg/kg bodyweight of Compound Z in PBS/1% v/v DMSO and VC groups were injected intraperitoneally once daily for 2 weeks, after which 4 hour fasted serum insulin levels were measured as described above.

| SMILES | effect on the basal proliferation of MDA-MB-231 cells (MDA-MB-231 cells; Compound X 10 μM without linolenic acid) | inhibition at 10 µM (MDA-MB-231 cells) | antagonism of free fatty acid stimulated cell proliferation (MDA-MB-231 cells) | hyperinsulinemia (4 hour fasted serum insulin level) (Ob/Ob mice) |
| --- | --- | --- | --- | --- |
| O=C1NC(=Nc2ccccn2)SC1Cc1ccc(F)cc1 (centres unmarked) [Compound X, 5-(4-Fluorobenzyl)-2-(pyridin-2-ylimino)thiazolidin-4-one] | did not exhibit any detectable effect | 70% | able to antagonize free fatty acid stimulated cell proliferation |  |
| O=C1NC(=Nc2ccc(Cl)cc2)SC1Cc1cccc(C(F)(F)F)c1 (centres unmarked) [Compound Y, 5-(3-(Trifluoromethyl)benzyl)-2-(4-chlorophenylimino)thiazolidin-4-one] |  | 100% | able to antagonize free fatty acid stimulated cell proliferation |  |
| Cc1ccc(N=C2NC(=O)C(Cc3cccc(C(F)(F)F)c3)S2)cc1 (centres unmarked) [Compound Z, 5-(3-(Trifluoromethyl)benzyl)-2-(p-tolylimino)thiazolidin-4-one] |  | 50% | able to antagonize free fatty acid stimulated cell proliferation | attenuated hyperinsulinemia |
